# Data: patent US4686221A, “Quinolinecarboxylic acid compounds and antimicrobial agent containing the same” (Kanebo, Ltd., priority 1985, dated 1987)
# Counter-ions that a name gives are not always drawn. Like-named read-outs stand apart in the source and are kept apart here.
# How the values were obtained:
# [1] = test system: Staphylococcus aureus IID 803; assay: Antibacterial activity in vivo (effect against systemic infection: ED50), S. aureus infected mice; design: species or system ddY male mice infected with Staphylococcus aureus; conditions: read-out: Antibacterial activity ED50 (50% effective dose)
# Protocol: (§1) Staphylococcus aureus IID 803
# (§2) (2) Measurement of antibacterial activity in vivo (effect against systemic infection: ED50):
# (§3) The test microorganism was cultured by stationary culture in an agar medium (Trypto-Soya Agar "Nissui", manufactured by Nissui Seiyaku K.K., Japan) at 37° C. for 16 to 18 hours. The culture was diluted with PBS (Dulbecco's phosphate buffered saline) and then was mixed with an equiamount of 10% (W/V) mucin (BACTO MUCIN BACTERIOLOGICAL, manufactured by Difco Co.). The mixture thus prepared was intraperitoneally inoculated to fasted ddY male mice (4 weeks age, weighing 18-20 g, one group: 5 mice) in a dose of 0.5 ml. The inoculum size was 1.3×10^7 CFU/mouse in case of S. aureus IID 803, and 9.7×10^3 CFU/mouse in case of E. coli KC-14.
# (§4) The mice were daily observed for one week, and from the survival number of mice after one week, the 50% effective dose (ED50) was calculated by the Weil method.
# [2] = test system: Staphylococcus aureus IID 803; assay: Antibacterial activity in vitro (minimum inhibitory concentration: MIC); type: cell-based
# Protocol: as §1
# (§5) (1) Measurement of antibacterial activity in vitro (minimum inhibitory concentration: MIC):
# (§6) The test compounds were each dissolved in 0.1N aqueous potassium hydroxide or sterilized distilled water and diluted with sterilized distilled water to give a standard solution (concentration: 1,000 μg/ml). The test was carried out by a method as appointed by Japan Society of Chemotherapy [cf. Chemotherapy, 29, 76-79 (1981) (TOKYO)].
# [3] = test system: Escherichia coli KC-14; assay: Antibacterial activity in vivo (effect against systemic infection: ED50), E. coli infected mice; design: species or system ddY male mice infected with Escherichia coli; conditions: read-out: Antibacterial activity ED50 (50% effective dose)
# Protocol: as §2, §3, §4
# [4] = test system: Escherichia coli KC-14; assay: Antibacterial activity in vitro (minimum inhibitory concentration: MIC); type: cell-based
# Protocol: as §5, §6
# [5] = in vivo; conditions: mouse, po
# Protocol: EXPERIMENT 2: ACUTE TOXICITY (LD50)
# The number of dead mice during 2 weeks after administration was counted, and the acute toxicity (LD50) was calculated by Weil method.
# [6] = IID803, 168 h, S. aureus IID 803 systemic infection, mice, oral 1 h after infection, survival after one week
# [7] = IID803, S. aureus IID 803, in vitro, read-out: Antibacterial activity MIC (minimum inhibitory concentration)
# [8] = KC14, 168 h, E. coli KC-14 systemic infection, mice, oral 1 h after infection, survival after one week
# [9] = KC14, E. coli KC-14, in vitro, read-out: Antibacterial activity MIC (minimum inhibitory concentration)
SMILES,"ED50 [1, 6] [mg/kg]","MIC [2, 7] [mg/L]","ED50 [3, 8] [mg/kg]","MIC [4, 9] [mg/L]","ED50 ([1]; IID803, po, 168 h) [mg/kg]","MIC ([2]; IID803, read-out: Antibacterial activity MIC (minimum inhibitory concentration)) [mg/L]","ED50 ([3]; KC14, po, 168 h) [mg/kg]","MIC ([4]; KC14, read-out: Antibacterial activity MIC (minimum inhibitory concentration)) [mg/L]",LD50 at 336 h [5] [mg/kg]
"CCn1cc(C(=O)O)c(=O)c2cc(F)c(N3CCNCC3)cc21 [A, 1-Ethyl-6-fluoro-1,4-dihydro-7-(piperazin-1-yl)-4-oxoquinoline-3-carboxylic acid, reference compound]",225,1.56,5.82,0.2,–,–,–,–,–
"Cl.O=C(O)c1cn(C2CC2)c2cc(N3CCNCC3)c(F)cc2c1=O [B, 1-Cyclopropyl-6-fluoro-1,4-dihydro-7-(piperazin-1-yl)-4-oxoquinoline-3-carboxylic acid hydrochloride, reference compound]",–,–,–,–,46.7,0.78,0.84,0.0125,–
"CCn1cc(C(=O)O)c(=O)c2cc(F)c(N3CCNCC3)c(F)c21.Cl [C, 1-Ethyl-6,8-difluoro-1,4-dihydro-7-(piperazin-1-yl)-4-oxoquinoline-3-carboxylic acid hydrochloride, reference compound]",40.3,0.78,1.46,0.1,–,–,–,–,1070
"Cl.O=C(O)c1cn(CCF)c2c(F)c(N3CCNCC3)c(F)cc2c1=O [D, 6,8-Difluoro-1-(2-fluoroethyl)-1,4-dihydro-7-(piperazin-1-yl)-4-oxoquinoline-3-carboxylic acid hydrochloride, reference compound]",123,1.56,5.82,0.2,–,–,–,–,–
"Cl.O=C(O)c1cn(C2CC2)c2c(F)c(N3CCNCC3)c(F)cc2c1=O [E, 1-Cyclopropyl-6,8-difluoro-1,4-dihydro-7-(piperazin-1-yl)-4-oxoquinoline-3-carboxylic acid hydrochloride, reference compound]",5.07,0.2,0.28,0.0125,–,–,–,–,1410
"CCn1cc(C(=O)O)c(=O)c2cc(F)c(N3CCN(O)CC3)cc21 [compound 1, 1-Ethyl-6-fluoro-1,4-dihydro-7-(4-hydroxypiperazin-1-yl)-4-oxoquinoline-3-carboxylic acid]",187,1.56,1.92,0.39,–,–,–,–,> 4000
"O=C(O)c1cn(C2CC2)c2cc(N3CCN(O)CC3)c(F)cc2c1=O [compound 2, 1-Cyclopropyl-6-fluoro-1,4-dihydro-7-(4-hydroxypiperazin-1-yl)-4-oxoquinoline-3-carboxylic acid hydrochloride 1/4 hydrate]",17.7,0.78,0.37,0.025,–,–,–,–,> 4000
"CCn1cc(C(=O)O)c(=O)c2cc(F)c(N3CCN(O)CC3)c(F)c21.Cl [compound 3, 1-Ethyl-6,8-difluoro-1,4-dihydro-7-(4-hydroxypiperazin-1-yl)-4-oxoquinoline-3-carboxylic acid hydrochloride]",26.8,0.78,0.84,0.2,–,–,–,–,> 4000
"Cl.O.O=C(O)c1cn(CCF)c2c(F)c(N3CCN(O)CC3)c(F)cc2c1=O [compound 4, 6,8-Difluoro-1-(2-fluoroethyl)-1,4-dihydro-7-(4-hydroxypiperazin-1-yl)-4-oxoquinoline-3-carboxylic acid hydrochloride monohydrate]",107,1.56,1.46,0.39,–,–,–,–,> 4000
"Cl.O=C(O)c1cn(C2CC2)c2c(F)c(N3CCN(O)CC3)c(F)cc2c1=O [compound 5, 1-Cyclopropyl-6,8-difluoro-1,4-dihydro-7-(4-hydroxypiperazin-1-yl)-4-oxoquinoline-3-carboxylic acid hydrochloride]",3.84,0.39,0.19,0.05,–,–,–,–,> 4000
